Reference: PubChem BioAssay AID1963856 (Molecular Pharmacology Branch, DTP, NCI, 2024)

Test system: LG0567-F671-PDC KRAS tumor spheroid viability
Assay: Anticancer human tumor LG0567-F671-PDC patient-derived lung adenocarcinoma cell line growth inhibition [KRAS2]
Details: spheroids with HUVEC and MSC; for IC50: curve of first compound; for viability, T/C: stronger effect = lower value
From the text: Multicellular complex tumor spheroid response to RAS pathway inhibitors in combination with a targeted agents in patient-derived cell lines with oncogenic KRAS variants from multiple cancer types
A high-throughput screen of multi-cell type tumor spheroids was designed to identify active combinations of targeted small molecules and KRAS pathway inhibitors. Complex spheroids include a stromal component modeled by human endothelial cells (HUVEC) and fibroblasts modeled by human mesenchymal stem cells (MSCs). The concentration ranges selected for each drug and investigational agent were based upon clinically achievable concentrations if the clinical Cmax of the agent was known.
Compounds. The drugs and investigational agents: BI-3406 (NSC825286), BAY-293 (NSC824723), batoprotafib (TNO155; NSC825523), sotorasib (AMG 510; NSC818433), MRTX1257 (NSC819558), elimusertib (BAY 1895344; NSC800525), molibresib (GSK525762; NSC774829), temuterkib (LY3214996; NSC803410), venetoclax (NSC766270), alisertib (NSC759677), olaparib (NSC753686), talazoparib (NSC767125), erdafitinib (NSC781556), ipatasertib (NSC767898), cabozantinib (NSC761068), nintedanib (NSC756659), abemaciclib (NSC768073), docetaxel (NSC628503), trametinib (NSC758246), and sapanisertib (NSC764658) were obtained from the National Cancer Institute (NCI) Developmental Therapeutics Program Chemical Repository. The FDA-approved anticancer drug set is available from the Developmental Therapeutics Program. […] The stock solutions were prepared in dimethyl sulfoxide (DMSO, Sigma-Aldrich, St. Louis, MO, cat. D2650) at 800-fold the tested concentration and stored at -70 degrees C prior to their use. All drugs and investigational agents were tested over a range starting from a high concentration at or near the clinical Cmax and decreasing in half-log increments. If the clinical Cmax for an agent had not been determined, the highest concentration tested was 10 microM.
Cell Culture. All cells were maintained in an incubator at 37 degrees C and 5% CO2 with 95% humidity. The PDC lines were cultured according to standard operating procedures established by the NCI PDMR (https://pdmr.cancer.gov/sops/default.htm). Briefly, all PDCs were thawed and cultured in Matrigel-coated flasks prepared with a working solution of 1X Ham's F-12 nutrient mix, without supplementation (Invitrogen, Waltham, MA, cat. 11765054), 100 U/mL penicillin-streptomycin (Invitrogen, cat. 15140122), and 2.5% Matrigel (Corning Inc., Corning, NY, cat. 354248) for the first three passages. All PDCs were cultured in complete DMEM/F-12 media containing advanced DMEM/F-12 (Invitrogen, cat. 12634028), 4.9% defined fetal bovine serum, heat inactivated (HyClone Laboratories Inc., Logan, UT, cat. SH30070.03HI), 389 ng/mL hydrocortisone (Sigma-Aldrich, cat. H4001), 9.7 ng/mL human EGF recombinant protein (Invitrogen, cat. PHG0313), 23.4 microg/mL adenine (Sigma-Aldrich, cat. A2786), 97.3 U/mL penicillin-streptomycin (Invitrogen, cat. 15140122), 1.9 mM L-glutamine (Invitrogen, cat. 25030081), and 9.7 microM Y-27632 dihydrochloride (Tocris Bioscience, Bristol, United Kingdom, cat. 1254). The PDCs were cultured in complete DMEM/F12 media without 9.7 microM Y-27632 dihydrochloride for at least two passages prior to the screen. The established cell line HOP-62 was cultured in RPMI 1640 medium, HEPES (Invitrogen, cat. 22400105) with 10% defined fetal bovine serum (HyClone Laboratories Inc., cat. SH30070.03) and 2 mM L-glutamine (Invitrogen, cat. 25030081). The pooled donor HUVEC were cultured in endothelial cell growth medium 2 (PromoCell, Heidelberg, Germany, cat. C-22011) and the hMSC were cultured in mesenchymal stem cell growth medium 2 (PromoCell, cat. C-28009). For all experiments, HUVEC and hMSC were used at passages </=5, while the malignant cell lines were used at passages </=15. […]

[1] = second compound 0.1 µM, first compound 0.0316 µM
[2] = second compound 0.1 µM, first compound 0.1 µM
[3] = second compound 0.316 µM, first compound 0.0316 µM
[4] = second compound 0.316 µM, first compound 0.1 µM
[5] = second compound 1 µM, first compound 0.0316 µM
[6] = second compound 1 µM, first compound 0.1 µM
[7] = second compound 3.16 µM, first compound 0.0316 µM
[8] = second compound 3.16 µM, first compound 0.1 µM
[9] = second compound 10 µM, first compound 0.0316 µM
[10] = second compound 10 µM, first compound 0.1 µM
[11] = second compound 0.1 µM, first compound 0.316 µM
[12] = second compound 0.1 µM, first compound 1 µM
[13] = second compound 0.1 µM, first compound 3.16 µM
[14] = second compound 0.1 µM, first compound 10 µM
[15] = second compound 0.316 µM, first compound 0.316 µM
[16] = second compound 0.316 µM, first compound 1 µM
[17] = second compound 0.316 µM, first compound 3.16 µM
[18] = second compound 0.316 µM, first compound 10 µM
[19] = second compound 1 µM, first compound 0.316 µM
[20] = second compound 1 µM, first compound 1 µM
[21] = second compound 1 µM, first compound 3.16 µM
[22] = second compound 1 µM, first compound 10 µM
[23] = second compound 3.16 µM, first compound 0.316 µM
[24] = second compound 3.16 µM, first compound 1 µM
[25] = second compound 3.16 µM, first compound 3.16 µM
[26] = second compound 3.16 µM, first compound 10 µM
[27] = second compound 10 µM, first compound 0.316 µM
[28] = second compound 10 µM, first compound 1 µM
[29] = second compound 10 µM, first compound 3.16 µM
[30] = second compound 10 µM, first compound 10 µM
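Also: drug exposure lasted seven days after spheroids formed for three days.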
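For viability, T/C in this document: 100% = DMSO vehicle control viability.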

| Compound | IC50 (second compound 0.1 µM) [nM] | IC50 (second compound 0.316 µM) [nM] | IC50 (second compound 1 µM) [nM] | IC50 (second compound 3.16 µM) [nM] | IC50 (second compound 10 µM) [nM] | viability, T/C [1] [%] | viability, T/C [2] [%] | viability, T/C [3] [%] | viability, T/C [4] [%] | viability, T/C [5] [%] | viability, T/C [6] [%] | viability, T/C [7] [%] | viability, T/C [8] [%] | viability, T/C [9] [%] | viability, T/C [10] [%] | viability, T/C [11] [%] | viability, T/C [12] [%] | viability, T/C [13] [%] | viability, T/C [14] [%] | viability, T/C [15] [%] | also measured |
| --- | --- | --- | --- | --- | --- | --- | --- | --- | --- | --- | --- | --- | --- | --- | --- | --- | --- | --- | --- | --- | --- |
| CC(C)n1nc(-c2ccc3oc(N)nc3c2)c2c(N)ncnc21 + C=CC(=O)N1CCN(c2nc(=O)n(-c3c(C)ccnc3C(C)C)c3nc(-c4c(O)cccc4F)c(F)cc23)C(C)C1 | < 0.316 | < 0.316 | < 0.316 | < 0.316 | < 0.316 | 9.02 | 8.13 | 8.62 | 7.08 | 8.47 | 6.2 | 7.41 | 8.01 | 10.9 | 10.3 | – | – | – | – | – | viability, T/C (second compound 0.1 µM, first compound 0.000316 µM): 21.4%; viability, T/C (second compound 0.1 µM, first compound 0.001 µM): 17.1%; viability, T/C (second compound 0.1 µM, first compound 0.00316 µM): 14.8%; viability, T/C (second compound 0.1 µM, first compound 0.01 µM): 11.4%; viability, T/C (second compound 0.316 µM, first compound 0.000316 µM): 20.6%; viability, T/C (second compound 0.316 µM, first compound 0.001 µM): 20%; viability, T/C (second compound 0.316 µM, first compound 0.00316 µM): 17.2%; viability, T/C (second compound 0.316 µM, first compound 0.01 µM): 11%; viability, T/C (second compound 1 µM, first compound 0.000316 µM): 23.9%; viability, T/C (second compound 1 µM, first compound 0.001 µM): 14.5%; viability, T/C (second compound 1 µM, first compound 0.00316 µM): 14%; viability, T/C (second compound 1 µM, first compound 0.01 µM): 10.8%; viability, T/C (second compound 3.16 µM, first compound 0.000316 µM): 20.2%; viability, T/C (second compound 3.16 µM, first compound 0.001 µM): 15.8%; viability, T/C (second compound 3.16 µM, first compound 0.00316 µM): 12.9%; viability, T/C (second compound 3.16 µM, first compound 0.01 µM): 10.2%; viability, T/C (second compound 10 µM, first compound 0.000316 µM): 20.3%; viability, T/C (second compound 10 µM, first compound 0.001 µM): 16.8%; viability, T/C (second compound 10 µM, first compound 0.00316 µM): 13.4%; viability, T/C (second compound 10 µM, first compound 0.01 µM): 13.1% |
| CC1(C)CCC(CN2CCN(c3ccc(C(=O)NS(=O)(=O)c4ccc(NCC5CCOCC5)c([N+](=O)[O-])c4)c(Oc4cnc5[nH]ccc5c4)c3)CC2)=C(c2ccc(Cl)cc2)C1 + C=CC(=O)N1CCN(c2nc(=O)n(-c3c(C)ccnc3C(C)C)c3nc(-c4c(O)cccc4F)c(F)cc23)C(C)C1 | < 31.6 | < 31.6 | < 31.6 | < 31.6 | < 31.6 | 31.9 | 28.1 | 27.2 | 28.8 | 27.2 | 28.5 | 29 | 28.6 | 25.8 | 26.3 | 26.2 | 25.7 | 11.7 | 2.83 | 25.4 | viability, T/C [16]: 23.1%; viability, T/C [17]: 16.5%; viability, T/C [18]: 6.09%; viability, T/C [19]: 25.9%; viability, T/C [20]: 22.8%; viability, T/C [21]: 11.2%; viability, T/C [22]: 3.32%; viability, T/C [23]: 27.6%; viability, T/C [24]: 27.1%; viability, T/C [25]: 11.1%; viability, T/C [26]: 2.68%; viability, T/C [27]: 24.9%; viability, T/C [28]: 25.6%; viability, T/C [29]: 5.1%; viability, T/C [30]: 6.11% |
| COc1cc2nccc(Oc3ccc(NC(=O)C4(C(=O)Nc5ccc(F)cc5)CC4)cc3)c2cc1OC + C=CC(=O)N1CCN(c2nc(=O)n(-c3c(C)ccnc3C(C)C)c3nc(-c4c(O)cccc4F)c(F)cc23)C(C)C1 | < 31.6 | < 31.6 | < 31.6 | < 31.6 | < 31.6 | 24.2 | 20.6 | 21.5 | 19.1 | 22.3 | 23.9 | 21.8 | 23.4 | 18.3 | 18.4 | 21.3 | 18.9 | 10.8 | 48.9 | 17.1 | viability, T/C [16]: 14.9%; viability, T/C [17]: 9.77%; viability, T/C [18]: 51.1%; viability, T/C [19]: 17.6%; viability, T/C [20]: 17.3%; viability, T/C [21]: 9.01%; viability, T/C [22]: 55%; viability, T/C [23]: 20.3%; viability, T/C [24]: 16.8%; viability, T/C [25]: 8.81%; viability, T/C [26]: 50.4%; viability, T/C [27]: 17.6%; viability, T/C [28]: 13.7%; viability, T/C [29]: 10.7%; viability, T/C [30]: 29.2% |
